Assay results reported in patent US20070025995A1, “Taxoid derivative covalently linked to tumor-specific antibody and a method for preparing the same” (priority 2005, published 2007).

System: tubulin
Assay: Tubulin polymerization activity (HTS-Tubulin Polymerization Assay Kit, OD340)
Format: biochemical
Conditions: absorbance at 340 nm over reaction time; FIG. 1; paclitaxel control 3.7 mg/mL aqueous solution
Text: The anticancer agent of the present invention has the structure of paclitaxel or docetaxel, and thus it was conjectured that the compound manifests its anticancer effects by inducing overproduction of tubulin in the same manner as paclitaxel or docetaxel. However, this compound blocks tubulin polymerization in the same manner as vinblastine. The tubulin polymerization activity assay was, as shown in Test Example 1, determined by measuring the absorbance at 340 nm and measuring tubulin polymerization activity.
Tubulin polymerization activity was measured using the HTS-Tubulin Polymerization Assay Kit (manufactured by Cytoskeleton) with respect to both the reaction solution of the present invention obtained in Example 1 and 3.7 mg/mL aqueous solution of paclitaxel used as a control.
The horizontal axis in the figure denotes reaction time (min) and the vertical axis represents tubulin polymerization activity (OD340).

For `CC(=O)O[C@H]1C(=O)[C@@]2(C)[C@H]([C@H](OC(=O)c3ccccc3)[C@]3(O)C[C@H](OC(=O)[C@H](O)[C@@H](NC(=O)c4ccccc4)c4ccccc4)C(C)=C1C3(C)C)[C@]1(OC(C)=O)CO[C@@H]1C[C@@H]2O` [paclitaxel, Paclitaxel], the “tubulin polymerization activity (OD340)” value was “tubulin polymerization was stimulated”.
